According to the NIST ThermoML archive (doi:10.1021/je100652b):
Numbers after ± are expanded uncertainties.

Conditions: 101.33 kPa, Liquid; for speed of sound: Sing-around technique in a fixed-path interferometer

mass density (298.15 K) | speed of sound (298.15 K) | mass density (308.15 K) | speed of sound (308.15 K) | SMILES
873.58 ± 0.36 kg/m3 | 1300 ± 2 m/s | 862.96 ± 0.38 kg/m3 | 1260 ± 2 m/s | c1ccccc1 [benzene]
805.91 ± 0.56 kg/m3 | 1244 ± 2 m/s | 798.21 ± 0.57 kg/m3 | 1212 ± 2 m/s | CCCCO [butan-1-ol]
773.86 ± 0.51 kg/m3 | 1254 ± 2 m/s | 764.46 ± 0.53 kg/m3 | 1212 ± 2 m/s | C1CCCCC1 [cyclohexane]
862.63 ± 0.38 kg/m3 | 1319 ± 2 m/s | 853.89 ± 0.39 kg/m3 | 1276 ± 2 m/s | CCc1ccccc1 [ethylbenzene]
818.91 ± 0.55 kg/m3 | 1330 ± 2 m/s | 811.94 ± 0.55 kg/m3 | 1292 ± 2 m/s | CCCCCCCO [heptan-1-ol]
937.6 ± 0.28 kg/m3 | 1182 ± 2 m/s | 925.7 ± 0.3 kg/m3 | 1152 ± 2 m/s | C=C(C)C(=O)OC [methyl methacrylate]
810.76 ± 0.56 kg/m3 | 1274 ± 2 m/s | 803.41 ± 0.57 kg/m3 | 1240 ± 2 m/s | CCCCCO [pentan-1-ol]

SMILES | mass density (298.15 K) | speed of sound (298.15 K) | mass density (308.15 K) | speed of sound (308.15 K)
Cc1ccc(C)cc1 [1,4-dimethylbenzene] | 856.7 ± 0.39 kg/m3 | 1314 ± 2 m/s | 847.88 ± 0.4 kg/m3 | 1272 ± 2 m/s
Cc1ccccc1 [toluene] | 862.21 ± 0.38 kg/m3 | 1304 ± 2 m/s | 852.86 ± 0.39 kg/m3 | 1262 ± 2 m/s
